Laboratory results: ChEMBL document CHEMBL5223066, “The medicinal chemistry of mitochondrial dysfunction: a critical overview of efforts to modulate mitochondrial health” (RSC Med Chem, 2021)
Each block holds one compound with its values, some of them ahead of it.

Columns and labels:
[1] = Induction of mitophagy in human HeLa cells; type: functional, cell-based
[2] = target: hERG (KCNH2) (Homo sapiens, UniProt Q12809); test: Inhibition of hERG at 30 uM relative to control; type: toxicity
[3] = Efflux ratio in dog MDCK-MDR1 cells; type: ADME, cell-based, Canis lupus familiaris
[4] = Ratio of drug level in brain to blood in BALB/c mouse at 5 mg/kg, po; type: ADME, organism-based
[5] = Drug concentration in brain of mouse at 400 mg/kg, po qd; type: ADME, organism-based; conditions: in vivo, read-out: Ct
[6] = Cmax in human CSF at 500 mg, po qd administered for 8 weeks; type: ADME, organism-based, Cerebrospinal fluid; design: time 8 weeks, dose 500 mg, route po
[7] = Cmax in human CSF at 1000 mg, po bid administered for 8 weeks; type: ADME, organism-based, Cerebrospinal fluid; design: dose 1000 mg, time 8 weeks, route po
[8] = Cmax in rat at 3 mg/kg, iv; type: ADME, organism-based; design: dose 3 mg/kg, route iv; conditions: in vivo

Chain of hERG (KCNH2) (Q12809 whole entry): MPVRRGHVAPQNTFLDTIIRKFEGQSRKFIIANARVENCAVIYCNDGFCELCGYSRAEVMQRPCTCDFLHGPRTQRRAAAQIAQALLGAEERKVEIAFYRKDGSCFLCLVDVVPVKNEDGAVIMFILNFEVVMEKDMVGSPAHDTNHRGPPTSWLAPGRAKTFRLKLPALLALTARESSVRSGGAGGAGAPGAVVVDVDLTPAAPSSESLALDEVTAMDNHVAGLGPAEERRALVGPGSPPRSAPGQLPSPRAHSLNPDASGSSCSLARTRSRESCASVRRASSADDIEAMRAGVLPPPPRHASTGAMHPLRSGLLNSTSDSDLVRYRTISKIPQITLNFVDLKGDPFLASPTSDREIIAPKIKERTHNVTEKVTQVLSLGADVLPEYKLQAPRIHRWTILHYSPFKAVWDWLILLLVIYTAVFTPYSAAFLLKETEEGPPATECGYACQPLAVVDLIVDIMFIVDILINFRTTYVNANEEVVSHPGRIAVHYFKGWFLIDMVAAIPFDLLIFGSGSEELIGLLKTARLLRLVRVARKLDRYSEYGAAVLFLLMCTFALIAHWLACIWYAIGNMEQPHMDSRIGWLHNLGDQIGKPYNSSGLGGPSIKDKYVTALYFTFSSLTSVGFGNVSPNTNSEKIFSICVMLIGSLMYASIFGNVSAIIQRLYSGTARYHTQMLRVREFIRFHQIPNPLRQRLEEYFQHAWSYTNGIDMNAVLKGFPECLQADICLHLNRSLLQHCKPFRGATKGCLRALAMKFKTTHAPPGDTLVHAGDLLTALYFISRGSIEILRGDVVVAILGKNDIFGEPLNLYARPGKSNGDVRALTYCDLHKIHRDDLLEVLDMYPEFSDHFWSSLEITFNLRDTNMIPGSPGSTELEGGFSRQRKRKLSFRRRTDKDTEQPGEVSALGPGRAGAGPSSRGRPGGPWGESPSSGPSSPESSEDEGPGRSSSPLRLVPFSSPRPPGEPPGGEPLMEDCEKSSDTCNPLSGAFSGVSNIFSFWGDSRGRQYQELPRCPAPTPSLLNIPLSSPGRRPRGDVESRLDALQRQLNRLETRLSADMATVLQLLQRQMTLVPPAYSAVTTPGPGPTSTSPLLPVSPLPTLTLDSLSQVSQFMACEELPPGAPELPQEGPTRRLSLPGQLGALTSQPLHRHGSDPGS

SMILES: FC(F)(F)c1cc2c(NC3CCCc4ccccc43)ncnc2[nH]1 (stereo not drawn)
- EC50 [1]: 440 nM

SMILES: C[C@@H]1C[C@@H](NC(=O)c2ncc(-c3cccc(C#N)c3)o2)CN1C#N
- inhibition at 30 µM [2]: 30.2%
- efflux ratio [3]: 23

SMILES: c1coc(CNc2ncnc3[nH]cnc23)c1 [KINETIN]
- concentration [5]: 2970 nM

Further lines, results first:

- Kp [4]: 0.015
SMILES: CO[C@H]1C[C@@H]2CC[C@@H](C)[C@@](O)(O2)C(=O)C(=O)N2CCCC[C@H]2C(=O)O[C@H]([C@H](C)C[C@@H]2CC[C@@H](OCCO)[C@H](OC)C2)CC(=O)[C@H](C)/C=C(\C)[C@@H](O)[C@@H](OC)C(=O)[C@H](C)C[C@H](C)/C=C/C=C/C=C/1C [EVEROLIMUS]

- Cmax [6]: 741 nM
- Cmax [7]: 741 nM
SMILES: CN(C)C(=N)N=C(N)N [METFORMIN]

- Cmax [8]: 2960 nM
SMILES: CN(CCOc1ccc(CC2SC(=O)NC2=O)cc1)c1ccccn1 (stereo not drawn) [ROSIGLITAZONE]
